As usually defined, the EC50 is the midpoint of the concentration-response curve. As a reminder, the Emax is the size of the effect at its maximum, as opposed to the concentration needed.

EC50 and Emax data for 21 compounds are collected here from patent US8846951B2 (AbbVie Inc., priority 2009, dated 2014).

One assay has as its target T1, 5HT2B receptors (Homo sapiens, UniProt P41595).
T1 construct: expressed in transfected cells; host or cells: CHO-K1 cells
The assay is described as follows: Human 5-HT2B functional high throughput screening assay in CHO-K1 cells (calcium flux). It counts as cell-based. The settings on record: for EC50: CHO-K1 cells, calcium flux. In outline: (§1)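 FLIPR calcium readout, ex 480/em 530 nm, 25 °C, 3 min post-addition; agonist response normalized to serotonin, 4-parameter fit → EC50, Emax (% serotonin). Cells: frozen CHO-K1 stable lines, serum-free overnight, Ca4 dye + 2.5 mM probenecid, 60 min RT dark.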
In general terms: A change in cytosolic calcium serves as a functional read-out for many receptors and channels.

In another assay the target is T2, 5HT2C receptors (Homo sapiens, UniProt P28335).
T2 sequence (P28335 33-458): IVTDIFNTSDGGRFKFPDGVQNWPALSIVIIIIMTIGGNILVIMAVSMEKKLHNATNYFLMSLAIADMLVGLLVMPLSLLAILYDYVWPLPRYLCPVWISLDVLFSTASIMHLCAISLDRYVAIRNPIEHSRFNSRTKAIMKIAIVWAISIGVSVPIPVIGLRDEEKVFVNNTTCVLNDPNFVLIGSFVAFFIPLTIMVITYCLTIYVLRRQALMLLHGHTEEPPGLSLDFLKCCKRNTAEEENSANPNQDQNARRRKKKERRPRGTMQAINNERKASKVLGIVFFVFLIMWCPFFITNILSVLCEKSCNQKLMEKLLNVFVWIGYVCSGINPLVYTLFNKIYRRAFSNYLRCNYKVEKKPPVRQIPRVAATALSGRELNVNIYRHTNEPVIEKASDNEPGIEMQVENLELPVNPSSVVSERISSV
The assay is described as follows: Human 5-HT2C functional high throughput screening assay in CHO-K1 cells (calcium flux). It counts as cell-based. More on the design: expressed in transfected cells; host or cells: CHO-K1 cells. The settings on record: for EC50: CHO-K1 cells, calcium flux; for Emax: 5-HT2C, maximum functional response as percentage relative to the effect of serotonin. Summed up:
as §1

The mark [1] stands for this setting: 5-HT2B agonist activity, read-out: EC50.
Where [2] appears, read: 5-HT2B, maximum functional response as percentage relative to the effect of serotonin.
Setting [3] is: 5-HT2C agonist activity, read-out: EC50.

Molecules are shown by their SMILES. Where two headings read alike, the source gives them in different places.

T1 sequence (P41595 whole entry): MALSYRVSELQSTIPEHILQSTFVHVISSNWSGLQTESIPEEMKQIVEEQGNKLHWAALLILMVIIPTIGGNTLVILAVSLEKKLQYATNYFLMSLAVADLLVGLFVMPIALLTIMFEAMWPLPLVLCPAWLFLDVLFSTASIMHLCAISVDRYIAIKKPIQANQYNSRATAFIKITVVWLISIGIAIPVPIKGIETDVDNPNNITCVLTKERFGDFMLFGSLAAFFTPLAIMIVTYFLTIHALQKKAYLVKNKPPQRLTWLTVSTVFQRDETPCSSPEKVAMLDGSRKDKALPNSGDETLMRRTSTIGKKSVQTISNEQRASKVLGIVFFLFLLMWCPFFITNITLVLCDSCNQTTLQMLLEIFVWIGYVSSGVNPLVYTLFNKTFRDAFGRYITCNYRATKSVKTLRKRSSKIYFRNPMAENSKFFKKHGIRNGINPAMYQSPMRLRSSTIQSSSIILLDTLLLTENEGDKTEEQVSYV

In the case of `CN1C[C@H]2CNC(=O)c3cc(-c4cccc(CCO)c4)ccc3[C@@H]2C1` (relative stereo) [Example 253, Trans-8-(3-(2-hydroxyethyl)phenyl)-2-methyl-1,2,3,3a,4,5-hexahydrobenzo[c]pyrrolo[3,4-e]azepin-6(10bH)-one], the EC50 at 5HT2B receptors (setting [1]) was more than 10000 nM; on 5HT2C receptors (setting [3]), 7 nM. The maximal effect (Emax) entry is “inactive” on 5HT2B receptors (setting [2]) and more than 120% at 5HT2C receptors (CHO-K1, read-out: Emax).
On to `CC(C)CC(O)c1cccc(-c2ccc3c(c2)C(=O)NC[C@H]2CN(C)C[C@H]32)c1` (stereo partly drawn) [Example 312, (3aS,10bS)-8-[3-(1-Hydroxy-3-methylbutyl)phenyl]-2-methyl-2,3,3a,4,5,10b-hexahydropyrrolo[3,4-d][2]benzazepin-6(1H)-one], for which the EC50 at 5HT2B receptors (setting [1]) is more than 10000 nM; on 5HT2C receptors (setting [3]) it was 2 nM. The Emax entry on 5HT2B receptors (setting [2]) was “inactive”; on 5HT2C receptors (CHO-K1, read-out: Emax) it was 90%.
Take `CN1C[C@@H]2CNC[C@H]2c2ccc(F)cc2C1=O` [Example 226, (3aS,10bR)-8-Fluoro-5-methyl-1,2,3,3a,4,5-hexahydrobenzo[c]pyrrolo[3,4-e]azepin-6(10bH)-one]: the Emax entry at 5HT2B receptors (setting [2]) is “inactive”; on 5HT2C receptors (CHO-K1), more than 120%. The EC50 on 5HT2B receptors (EC50, 5-HT2B agonist activity) was more than 10000 nM.
As for `C[C@@H](Cc1ccccc1)Oc1ccc2c(c1)C(=O)NC[C@@H]1CN(Cc3ccccc3)C[C@@H]21` (mixture of isomers) [Example 120, Trans-2-benzyl-8-((S)-1-phenylpropan-2-yloxy)-1,2,3,3a,4,5-hexahydrobenzo[e]pyrrolo[3,4-c]azepin-6(10bH)-one], the EC50 at 5HT2B receptors (setting [1]) was more than 10000 nM; on 5HT2C receptors (setting [3]), 400 nM. Moreover, the Emax entry on 5HT2B receptors (setting [2]) is “inactive”; at 5HT2C receptors (CHO-K1, read-out: Emax), 110%.
As for `CN1C[C@H]2CNC(=O)c3cc(OCc4ccccc4)ccc3[C@@H]2C1` (relative stereo) [Example 216, Trans-8-(benzyloxy)-2-methyl-1,2,3,3a,4,5-hexahydrobenzo[c]pyrrolo[3,4-e]azepin-6(10bH)-one], the Emax entry on 5HT2B receptors (setting [2]) is “inactive”; on 5HT2C receptors (CHO-K1) it was more than 120%. Besides, the EC50 at 5HT2B receptors (EC50, 5-HT2B agonist activity) is more than 10000 nM; on 5HT2C receptors (EC50, 5-HT2C agonist activity), 2 nM.
As for `C[C@@H](O)c1cccc(-c2ccc3c(c2)C(=O)NC[C@H]2CN(C)C[C@H]32)c1` [Example 294, (3aS,10bS)-8-{3-[(1R)-1-hydroxyethyl]phenyl}-2-methyl-2,3,3a,4,5,10b-hexahydropyrrolo[3,4-d][2]benzazepin-6(1H)-one], the EC50 on 5HT2B receptors (setting [1]) was more than 10000 nM. Also, the Emax result was “inactive” on 5HT2B receptors (setting [2]) and 100% on 5HT2C receptors.
For `CN1C[C@@H]2CNC(=O)c3cc(F)cc(F)c3[C@H]2C1` [Example 162, (3aS,10bS)-8,10-Difluoro-2-methyl-1,2,3,3a,4,5-hexahydrobenzo[e]pyrrolo[3,4-c]azepin-6(10bH)-one], the figures for the Emax at 5HT2B receptors (CHO-K1) and at 5HT2C receptors (CHO-K1) were 40% and more than 120%, respectively. In addition, the EC50 at 5HT2B receptors (EC50, 5-HT2B agonist activity) was found to be 100 nM; on 5HT2C receptors (EC50, 5-HT2C agonist activity), 8 nM.
With `c1ccc2c(c1)NCC[C@@H]1CNC[C@@H]21` (relative stereo) [Example 389, Trans-1,2,3,3a,4,5,6,10b-octahydropyrrolo[3,4-d][1]benzazepine], the EC50 at 5HT2B receptors (setting [1]) was 400 nM; on 5HT2C receptors (setting [3]), 900 nM. For the same compound, the Emax on 5HT2B receptors (CHO-K1) came to 70%; on 5HT2C receptors (CHO-K1), 95%.
As for `Fc1ccc(F)c2c1OCC[C@H]1CNC[C@@H]21` (relative stereo) [Example 288, Cis-7,10-difluoro-2,3,3a,4,5,10b-hexahydro-1H-[1]benzoxepino[4,5-c]pyrrole], the Emax at 5HT2B receptors (CHO-K1) was found to be 50%; on 5HT2C receptors (CHO-K1), 90%. Besides, the EC50 at 5HT2B receptors (EC50, 5-HT2B agonist activity) amounted to 700 nM; at 5HT2C receptors (EC50, 5-HT2C agonist activity), 40 nM.
As to `CC(C)=Cc1ccc2c(c1)C(=O)NC[C@@H]1CN(C)C[C@@H]21` (relative stereo) [Example 197, Trans-2-methyl-8-(2-methylprop-1-enyl)-1,2,3,3a,4,5-hexahydrobenzo[e]pyrrolo[3,4-c]azepin-6(10bH)-one], the figures for the Emax entry at 5HT2B receptors (setting [2]) and on 5HT2C receptors (CHO-K1) were “inactive” and more than 120%, respectively. The EC50 was more than 10000 nM on 5HT2B receptors (EC50, 5-HT2B agonist activity) and 3 nM at 5HT2C receptors (EC50, 5-HT2C agonist activity).
On to `CC(=O)c1ccc(-c2ccc3c(c2)C(=O)NC[C@@H]2CNC[C@@H]32)s1` (relative stereo) [Example 296, Trans-8-(5-acetyl-2-thienyl)-2,3,3a,4,5,10b-hexahydropyrrolo[3,4-d][2]benzazepin-6(1H)-one], for which the EC50 is more than 10000 nM at 5HT2B receptors (setting [1]) and 1 nM on 5HT2C receptors (setting [3]). The Emax result is “inactive” on 5HT2B receptors (setting [2]) and 100% at 5HT2C receptors (CHO-K1, read-out: Emax).
The corresponding values for `CN1C[C@@H]2CCOc3c(-c4ccc(F)cc4)cccc3[C@H]2C1` (relative stereo) [Example 400, Trans-7-(4-fluorophenyl)-2-methyl-2,3,3a,4,5,10b-hexahydro-1H-[1]benzoxepino[4,5-c]pyrrole] are more than 10000 nM, 800 nM, “inactive” and 70%.
Regarding `COc1ccc(-c2ccc3c(c2)C(=O)NC[C@@H]2CN(C)C[C@@H]32)cc1` [Example 159, (3aR,10bR)-8-(4-Methoxyphenyl)-2-methyl-1,2,3,3a,4,5-hexahydrobenzo[e]pyrrolo[3,4-c]azepin-6(10bH)-one], the EC50 at 5HT2B receptors (setting [1]) was more than 10000 nM. In addition, the Emax result on 5HT2B receptors (setting [2]) was “inactive”; at 5HT2C receptors (CHO-K1, read-out: Emax), 110%.
Take `O=S(=O)(c1ccc(Cl)c(Cl)c1)N1Cc2cccnc2[C@@H]2CNC[C@H]2C1` (relative stereo) [Example 334, Trans-6-[(3,4-dichlorophenyl)sulfonyl]-5,6,7,7a,8,9,10,10a-octahydropyrido[3,2-c]pyrrolo[3,4-e]azepine]: the results for the EC50 on 5HT2B receptors (setting [1]) and on 5HT2C receptors (setting [3]) were more than 10000 nM and 70 nM, respectively. For the same compound, the Emax result was “inactive” at 5HT2B receptors (setting [2]) and 90% on 5HT2C receptors (CHO-K1, read-out: Emax).
For `C[C@H](Cc1ccccc1)Oc1ccc2c(c1)C(=O)NC[C@@H]1CN(Cc3ccccc3)C[C@@H]21` (mixture of isomers) [Example 118, Trans-2-benzyl-8-((R)-1-phenylpropan-2-yloxy)-1,2,3,3a,4,5-hexahydrobenzo[e]pyrrolo[3,4-c]azepin-6(10bH)-one] the same measures were more than 10000 nM, 300 nM, “inactive” and more than 120%.
For `C[C@@H](O)c1cccc(-c2ccc3c(c2)C(=O)NC[C@H]2CN(C)C[C@H]32)c1` [Example 249, (3aS,10bS)-8-(3-((R)-1-Hydroxyethyl)phenyl)-2-methyl-1,2,3,3a,4,5-hexahydrobenzo[e]pyrrolo[3,4-c]azepin-6(10bH)-one] the same measures were more than 10000 nM, 2 nM, “inactive” and 100%.
With `CC(C)COc1ccc2c(c1)C(=O)NC[C@@H]1CNC[C@@H]21` (relative stereo) [Example 166, Trans-8-isobutoxy-1,2,3,3a,4,5-hexahydrobenzo[e]pyrrolo[3,4-c]azepin-6(10bH)-one], the maximal response (Emax) result on 5HT2B receptors (setting [2]) was “inactive”; on 5HT2C receptors (CHO-K1), more than 120%. Further, the EC50 at 5HT2B receptors (EC50, 5-HT2B agonist activity) is more than 10000 nM.
For `O=C1NC[C@@H]2CNC[C@H]2c2ccc(-c3ccc(F)cc3)cc21` [Example 221, (3aS,10bR)-8-(4-Fluorophenyl)-1,2,3,3a,4,5-hexahydrobenzo[e]pyrrolo[3,4-c]azepin-6(10bH)-one], the EC50 on 5HT2B receptors (setting [1]) is more than 10000 nM. Moreover, the Emax entry on 5HT2B receptors (setting [2]) is “inactive”; at 5HT2C receptors (CHO-K1, read-out: Emax) it was more than 120%.
As for `COc1ccc2c(c1)OCC[C@H]1CNC[C@H]21` (relative stereo) [Example 280, Trans-8-methoxy-2,3,3a,4,5,10b-hexahydro-1H-[1]benzoxepino[4,5-c]pyrrole], the Emax came to 60% at 5HT2B receptors (CHO-K1) and 100% on 5HT2C receptors (CHO-K1). Also, the EC50 at 5HT2B receptors (EC50, 5-HT2B agonist activity) came out at 100 nM; on 5HT2C receptors (EC50, 5-HT2C agonist activity) it was 90 nM.
Consider `c1ccc2c(c1)OCC[C@@H]1CNC[C@@H]21` [Example 271, (3aS,10bR)-2,3,3a,4,5,10b-Hexahydro-1H-[1]benzoxepino[4,5-c]pyrrole], for which the figures for the Emax on 5HT2B receptors (CHO-K1) and at 5HT2C receptors (CHO-K1) were 30% and 120%, respectively. For the same compound, the EC50 at 5HT2B receptors (EC50, 5-HT2B agonist activity) worked out at 5000 nM; at 5HT2C receptors (EC50, 5-HT2C agonist activity), 400 nM.
For `CN1C[C@H]2CNC(=O)c3cc(C4CCOCC4)ccc3[C@@H]2C1` (relative stereo) [Example 267, Trans-2-methyl-8-(tetrahydro-2H-pyran-4-yl)-1,2,3,3a,4,5-hexahydrobenzo[c]pyrrolo[3,4-e]azepin-6(10bH)-one], the EC50 at 5HT2B receptors (setting [1]) was more than 10000 nM; at 5HT2C receptors (setting [3]), 1000 nM. Moreover, the Emax entry on 5HT2B receptors (setting [2]) was “inactive”; on 5HT2C receptors (CHO-K1, read-out: Emax), 90%.
